Laboratory results from patent US20100178317A1, “Lens Care Solutions with Hyaluronic Acid” (priority 2009, published 2010).

Experiment: Precipitate formation of polyquaternium-1 in hyaluronic acid compositions
Format: physicochemical
Conditions: polyquaternium-1 concentration beyond 3 ppm
From the text: One of the more common quaternary ammonium compounds is α-[4-tris(2-hydroxyethyl)-ammonium chloride-2-butenyl]poly[1-dimethyl ammonium chloride-2-butenyl]-ω-tris(2-hydroxyethyl) ammonium chloride, also referred to in the art as polyquaternium-1. Quaternary ammonium compounds are generally referred to in the art as “polyquatemium” disinfectants, and are identified by a particular number following the designation such as polyquaternium-1, polyquaternium-10 or polyquaternium-42. Polyquaternium-1 is present in the ophthalmic compositions from 0.5 ppm to 3 ppm. […] The precipitate is believed to be the complexation product of hyaluronic acid and polyquaternium-1.

- compatibility with hyaluronic acid in the compositions: formation of a precipitate
Substance: α-[4-tris(2-hydroxyethyl)-ammonium chloride-2-butenyl]poly[1-dimethyl ammonium chloride-2-butenyl]-ω-tris(2-hydroxyethyl) ammonium chloride [polyquaternium-1]
